Experimental findings from patent publication US20260265222A1, “1H-PYRROLE-2-AMIDE DERIVATIVE, PHARMACEUTICAL COMPOSITION AND METHOD FOR TREATING AND/OR PREVENTING YTHDC1-RELATED DISEASES” (priority 2023, published 2026) are described below.

For assay [1], the target named is T1, GST-YTHDC1 (345-509) protein (Homo sapiens, UniProt Q96MU7).
T1 construct: GST-YTHDC1 (345-509) protein
Kind of assay: Fluorescence polarization-based in vitro enzyme-level test against YTHDC1. The note with it: 30 nM GST-YTHDC1 (345-509), FAM-labeled m6A-modified single-stranded oligonucleotide, 18° C., 4 hours; read-out: IC50 (Inhibitory Activity against YTHDC1). Type of assay: binding.

For assay [2], the system named is leukaemia cell MOLM-13. Description: Differentiation detection by flow cytometry (PE-CD11b, APC-CD14). It counts as cell-based. To be noted: MOLM-13, 0.5-2 μM, 5 days (FIG. 1c). How it is done: To detect the effect of the small molecule YL-5092 on the differentiation of leukaemia cell MOLM-13, MOLM-13 cells were evenly seeded in 12-well plates and treated them with different concentration gradients of YL-5092 (0.5-2 μM) for 5 days. After collection, the cells were washed twice with ice-cold PBS, and 2 μL of PE-CD11b antibody and 2 μL of APC-CD14 antibody were added for incubation for 30 min, protected from light, then washed twice with ice-cold PBS, and finally analyzed on the flow cytometer.

In assay [3] the test system is leukaemia cells MOLM-13, MV4-11, THP-1, and U937. Kind of assay: Apoptosis detection by flow cytometry (APC-Annexin V, 7-AAD). Type of assay: cell-based. The note with it: MOLM-13, MV4-11, THP-1, U937; 0.5-2 μM, 5 days (FIG. 1d). How it is done:
To detect the effect of the small molecule YL-5092 on the apoptosis of leukaemia cells MOLM-13, MV4-11, THP-1, and U937, MOLM-13, MV4-11, THP-1, and U937 cells were evenly seeded in 12-well plates and treated them with different concentration gradients of YL-5092 (0.5-2 μM) for 5 days. After collection, the cells were washed twice with ice-cold PBS, and 5 μL of APC-Annexin V antibody and 5 μL of 7-AAD were added for incubation for 15-30 min, protected from light, and finally analyzed on the flow cytometer.
In general terms: In flow cytometry, cells or beads pass a laser one at a time.

The subject of assay [4] is leukaemia cell MOLM-13. Kind of assay: Cell cycle detection by flow cytometry (PI). The note with it: MOLM-13, 0.5-2 μM, 48 h (FIG. 1b). Type of assay: cell-based. The method, then:
To detect the effect of the small molecule YL-5092 on the cell cycle of leukaemia cell MOLM-13, MOLM-13 cells were evenly seeded in 12-well plates and treated with different concentration gradients of YL-5092 (0.5-2 μM) for 48 h. After collection, the cells were washed once with ice-cold PBS and fixed with 70% ice-cold ethanol for 12 h. Before analysis on the flow cytometer, the cells were washed twice with ice-cold PBS and then incubated with PI reagent for 30 min, protected from light.

Assay [5] deals with AML cells (MV4-11, HL-60, MOLM-13, THP-1, KG-1, U937, OCI-AML3). Description: Detection of cell proliferation by MTT assay. It counts as cell-based. The note with it: 72 h, range over the cell lines (FIG. 1a), read-out: IC50 values, inhibition of proliferation of AML cells. How it is done:
AML cells (MV4-11, HL-60, MOLM-13, THP-1, KG-1, U937, and OCI-AML3) were seeded in 96-well plates at 10,000-15,000 cells per well, and then a series of concentration gradients of YL-5092 (i.e., Compound 29) were added for culture for 72 h. 20 μL of MTT solution ([…]) was added to each well and incubated for 2-4 hours, followed by the addition of 50 μL of 20% SDS solution and incubation overnight to dissolve the formazan. The absorbance value was then read at 570 nm on a microplate reader, and the IC50 value of YL-5092 was calculated using GraphPad Prism 8.0.
(In general: Formazan colour is commonly taken as a measure of viable cells.)

With `O=C(Nc1ccc(-c2cncs2)cc1)c1cc(C(=O)c2ccccc2C(F)(F)F)c[nH]1` [Compound 29], the IC50 was 7 nM in assay [1] and 280 to 2870 nM in assay [5]. The AML cell differentiation entry in assay [2] is recorded as “induce AML cell differentiation”. Moreover, in assay [3], the AML cell apoptosis entry is reported as “apoptosis”. Further, the “AML cell cycle arrest” value in assay [4] was “significantly induce AML cell cycle arrest in the G0/G1 phase”.

Turning to `C[C@@H]1CN(c2ccccc2C(=O)c2c[nH]c(C(=O)Nc3ccc(-c4cnco4)cc3)c2)C[C@H](C)O1` [Compound 147], the IC50 in assay [1] worked out at 190 nM. Take `CC1(C)CN(c2ccccc2C(=O)c2c[nH]c(C(=O)Nc3ccc(-c4cnco4)cc3)c2)CCO1` [Compound 150]: the IC50 in assay [1] stood at 84 nM.

With `CS(=O)(=O)c1ccccc1-c1nccc2[nH]c(C(=O)Nc3ccc(-c4cnco4)cc3)cc12` [Compound 62], the IC50 in assay [1] was 280 nM. On to `O=C(Nc1ccc(-c2cnco2)cc1)c1cc(C(=O)c2ccccc2N2CCCCCC2)c[nH]1` [Compound 140], for which the IC50 in assay [1] came out at 134 nM. Regarding `O=C(Nc1ccc(Br)cc1)c1cc(C(=O)c2ccccc2C(F)(F)F)c[nH]1` [Compound 16], in assay [1], the IC50 was determined as 41 nM. In the case of `O=C(Nc1ccc(-c2cnco2)cc1)c1cc(C(=O)c2ccccc2C(F)(F)F)c[nH]1` [Compound 105], the IC50 in assay [1] was found to be 9.7 nM. Still for that read-out and setting: as for `O=C(Nc1ccc(-c2cccnc2)cc1)c1cc(C(=O)c2ccccc2C(F)(F)F)c[nH]1` [Compound 23], the figure is 47 nM. Take `O=C(Nc1ccc(-c2cnco2)cc1)c1cc(C(=O)c2ccccc2N2CCC(F)C2)c[nH]1` (stereo not shown) [Compound 137]: the IC50 in assay [1] was determined as 11 nM.

Turning to `O=C(Nc1ccc(-c2cnc(N3CCOCC3)o2)cc1)c1cc(C(=O)c2ccccc2Br)c[nH]1` [Compound 78], the IC50 in assay [1] was determined as 123 nM. On to `O=C(Nc1cccc(C(F)(F)F)c1)c1cc(C(=O)c2ccccc2C(F)(F)F)c[nH]1` [Compound 115], for which the IC50 in assay [1] was 2640 nM. As for `CCc1ccccc1C(=O)c1c[nH]c(C(=O)Nc2cccnc2)c1` [Compound 11], the IC50 in assay [1] was 1570 nM. For `O=C(Nc1ccc(F)cc1)c1cc(C(=O)c2ccccc2C(F)(F)F)c[nH]1` [Compound 15], the IC50 in assay [1] worked out at 105 nM. As to `O=C(Nc1ccc(-c2cnco2)cc1)c1cc(C(=O)c2ccccc2N2CCSCC2)c[nH]1` [Compound 118], in assay [1], the IC50 is 12 nM. Still for that read-out and setting: the result for `O=C(Nc1ccc(-c2cncs2)cc1)c1cc2c(-c3ccccc3C(F)(F)F)nccc2[nH]1` [Compound 41] reads 192 nM. The same measure, in the same setting: the result for `O=C(Nc1ccc2c(c1)OCc1ccccc1-2)c1cc(C(=O)c2ccccc2C(F)(F)F)c[nH]1` [Compound 83] reads 98.7 nM; that for `O=C(Nc1ccc(-c2cnco2)cc1)c1cc(C(=O)c2ccccc2N2CCCC2)c[nH]1` [Compound 128], 23 nM; that for `Cc1ncsc1-c1ccc(NC(=O)c2cc(C(=O)c3ccccc3C(F)(F)F)c[nH]2)cc1` [Compound 33], 12 nM.
